Values after ≈ are worked out from the molar mass of the structure shown.
Key:
[1] = system: Streptococcus pneumoniae CMCC 31203; assay: In vivo antibacterial test, survival of infected BALB/c mice; settings: BALB/c mice infected i.p. with Streptococcus pneumoniae, 5 mg per kg s.c. via neck for 3 consecutive days, deaths recorded until the seventh day; for responders at 5 mg/kg: CMCC31203, sc, 168 h, read-out: Animal survival rate
[2] = system: Staphylococcus aureus CVCC26003; assay: MIC by mini broth dilution technique (in vitro susceptibility); assay type: cell-based; settings: Staphylococcus aureus CVCC26003; broth dilution; read-out: MIC values Staphylococcus aureus CVCC26003
Method: (§1) in vitro tests of susceptibility of the compounds according to the present disclosure against bacterial strains commonly used in laboratories. In accordance with the Performance Standards for Antimicrobial Disk Susceptibility Tests: Approved Standard published by the US National Committee for Clinical Laboratory Standards, the antibactetial activities of compounds prepared according to examples 5 to 187 were tested. The MICs (minimum inhibitory concentration) of the medicaments prepared according to the examples on the following bacterial strains were measured through mini broth dilution technique. Staphylococcus aureus CVCC26003, Streptococcus equines CVCC556. Actinobacillus pleuropneumoniae CVCC262, Haemophilus parasuis, and Pasteurella multocida CVCC399, which were purchased from the Control Institute of Veterinary Bioproducts and Pharmaceuticals, China. Liquid culture medium: CAMHB. […] Solid culture medium: NINA prepared according to the specification of the final product. The strains were taken out of a regrigerator at −20° C. to be revived, and were spreaded by streaking on the solid culture medium with an inoculating loop. The inoculated culture medium was cultured at 35° C. in a constant temperature incubator for 20 h. Monoclonal antibodies were selected from a well-grown culture plate and streaked on the solid culture medium. The inoculated culture medium was cultured at 35° C. in the constant temperature incubator for 20 h. […] A 96-well plate was used, and 100 μl of DMSO was added into each of wells 2 to 11, and 200 μl of ready-prepared medicament solution was added into the 1st well, 100 μl of the medicament solution was extracted from the 1st well and added into the 2nd well. Double dilution was performed until the 11th well, thereby forming 11 gradients. In this case, compound of parent plate was prepared. 3 μl of double diluted medicament solution was extracted with a 12-channel pipettor and added into wells 1-11 of a new disposable 96-well culture plate. The 12th well thereof is a controll well. For each medicament, there are two adjacent rows which are parallel. The transferred compound plate was reserved for later use. […] The dilution ratio was recorded, and the bacterial liquid for the tests was diluted according to the recorded dilution ratio. Subsequently, the bacterial suspension and the liquid culture medium were diluted in the proportion of 1:200. The diluted solution was reserved for later use.

[3] = system: Streptococcus equines CVCC556; assay: as above; assay type: cell-based; settings: Streptococcus equines CVCC556; broth dilution; read-out: MIC values Streptococcus equines CVCC556
Method: as §1, with “medium:” for “medium: CAMHB.”, “NINA prepared according to the specification of the final product.” left out

Haemophilus parasuis = assay: as above; assay type: cell-based; settings: Glaesserella parasuis; Haemophilus parasuis; broth dilution; read-out: MIC values Haemophilus parasuis
Method: as §1, with “medium:” for “medium: CAMHB.”, “NINA prepared according to the specification of the final product.” left out

[4] = system: Pasteurella multocida CVCC399; assay: as above; assay type: cell-based; settings: Pasteurella multocida CVCC399; broth dilution; read-out: MIC values Pasteurella multocida CVCC399
Method: as §1, with “medium:” for “medium: CAMHB.”, “NINA prepared according to the specification of the final product.” left out

[5] = system: Actinobacillus pleuropneumoniae CVCC262; assay: as above; assay type: cell-based; settings: Actinobacillus pleuropneumoniae CVCC262, broth dilution; for MIC: read-out: MIC values Actinobacillus pleuropneumoniae CVCC262
Method: as §1, with “medium:” for “medium: CAMHB.”, “NINA prepared according to the specification of the final product.” left out

| Compound | Animal survival rate [1] | MIC [2] [µg/mL] | responders at 5 mg/kg [1] [%] | MIC [3] [µg/mL] | MIC (Haemophilus parasuis) [µg/mL] | MIC [4] [µg/mL] | MIC [5] [µg/mL] | MIC values Actinobacillus pleuropneumoniae CVCC262 [5] [ug/mi] |
| --- | --- | --- | --- | --- | --- | --- | --- | --- |
| CCCNC[C@]1(O)[C@H](C)O[C@@H](O[C@H]2[C@H](C)[C@@H](O[C@@H]3O[C@H](C)C[C@H](N(C)C)[C@H]3O)[C@](C)(O)C[C@@H](C)NC[C@H](C)[C@@H](O)[C@](C)(O)[C@@H](CC)OC(=O)[C@@H]2C)C[C@@]1(C)OC [syzx-1] | 80% (8/10) | – | – | – | – | – | – | – |
| CCCCNC[C@]1(O)[C@H](C)OC(O[C@@H]2[C@@H](C)[C@@H](O[C@@H]3O[C@H](C)C[C@H](N(C)C)[C@H]3O)[C@](C)(O)C[C@@H](C)NC[C@@H](C)[C@H](O)[C@](C)(O)[C@H](CC)OC(=O)[C@@H]2C)C[C@@]1(C)OC (stereo partly drawn) [syzx-2] | – | 4 (≈ 4.88 µM) | 80 | 2 (≈ 2.44 µM) | 2 (≈ 2.44 µM) | 2 (≈ 2.44 µM) | 1 (≈ 1.22 µM) | – |
| CC[C@@H]1OC(=O)[C@H](C)[C@H](OC2C[C@@](C)(OC)[C@](O)(CN(CC)CC)[C@H](C)O2)[C@@H](C)[C@@H](O[C@@H]2O[C@H](C)C[C@H](N(C)C)[C@H]2O)[C@](C)(O)C[C@@H](C)NC[C@@H](C)[C@H](O)[C@]1(C)O (stereo partly drawn) [syzx-3, (2R,3S,4R,5S,8R,10R,11R,12S,13S,14R)-13-[(2,6-dideoxy-3-C -methyl-3-O-methyl-4-C-[(diethylamino)methyl]-α-L-ribopyranosyl)oxy]-2-ethyl-3,4,10-trihydroxy-3,5,8,10,12,14-hexamethyl-11-[[3,4,6-trideoxy-3-(dimethylamino)-β-D-xylo-hexopyranosy]oxy]-1-oxa-7-azacyclopentadecan-15-one] | – | 0.5 (≈ 0.61 µM) | 70 | 0.125 (≈ 0.152 µM) | 0.125 (≈ 0.152 µM) | 0.125 (≈ 0.152 µM) | 1 (≈ 1.22 µM) | – |
| CC[C@@H]1OC(=O)[C@H](C)[C@H](OC2C[C@@](C)(OC)[C@](O)(CN3CCOCC3)[C@H](C)O2)[C@@H](C)[C@@H](O[C@@H]2O[C@H](C)C[C@H](N(C)C)[C@H]2O)[C@](C)(O)C[C@@H](C)NC[C@@H](C)[C@H](O)[C@]1(C)O (stereo partly drawn) [syzx-5, (2R,3S,4R,5S,8R,10R,11R,12S,13S,14R)-13-[(2,6-dideoxy-3-C-methyl-3-O-methyl-4-C-[(morpholinyl)methyl]-α-L-ribopyranosyl)oxy]-2-ethyl-3,4,10-trihydroxy-3,5,8,10,12,14-hexamethyl-11-[[3,4,6-trideoxy-3-(dimethylamino)-β-D-xylo-hexopyranosy]oxy]-1-oxa-7-azacyclopentadecan-15-one] | – | 0.5 (≈ 0.599 µM) | 70 | ≤ 0.25 | 0.5 (≈ 0.599 µM) | 0.5 (≈ 0.599 µM) | 16 (≈ 19.2 µM) | – |
| CC[C@@H]1OC(=O)[C@H](C)[C@H](OC2C[C@@](C)(OC)[C@](O)(CNC3CC3)[C@H](C)O2)[C@@H](C)[C@@H](O[C@@H]2O[C@H](C)C[C@H](N(C)C)[C@H]2O)[C@](C)(O)C[C@@H](C)NC[C@@H](C)[C@H](O)[C@]1(C)O (stereo partly drawn) [syzx-6, (2R3S,4R5S,8R,10R,11R,12S,13S,14R)-13-[(2,6-dideoxy-3-C-methyl-3-O-methyl-4-C-[(cyclopropylamino)methyl]-α-L-ribopyranosyl)oxy]-2-ethyl-3,4,10-trihydroxy-3,5,8,10,12,14-hexamethyl-11-[[3,4,6-trideoxy-3-(dimethylamino)-β-D-xylo-hexopyranosy]oxy]-1-oso-7-azacyclopentadecan-15-one] | – | 0.125 (≈ 0.155 µM) | 80 | 0.125 (≈ 0.155 µM) | 0.125 (≈ 0.155 µM) | 0.125 (≈ 0.155 µM) | 0.125 (≈ 0.155 µM) | – |
| CCNC[C@]1(O)[C@H](C)OC(O[C@@H]2[C@@H](C)[C@@H](O[C@@H]3O[C@H](C)C[C@H](N(C)C)[C@H]3O)[C@](C)(O)C[C@@H](C)NC[C@@H](C)[C@H](O)[C@](C)(O)[C@H](CC)OC(=O)[C@@H]2C)C[C@@]1(C)OC (stereo partly drawn) [syzx-10, (2R,3S,4R,5S,8R,10R,11R,12S,13S,14R)-13-[(2,6-dideoxy-3-C-methyl-3-O-methyl-4-C-[(ethylamino)methyl]-α-L-ribopyranosyl)oxy]-2-ethyl-3,4,10-trihydroxy-3,5,8,10,12,14-hexamethyl-11-[[3,4,6-trideoxy-3-(dimethylamino)-β-D-xylo-hexopyranosy]oxy]-1-oxa-7-azacycopentadecan-15-one] | – | 0.5 (≈ 0.631 µM) | 90 | 0.5 (≈ 0.631 µM) | 1 (≈ 1.26 µM) | ≤ 0.25 | 0.5 (≈ 0.631 µM) | – |
| CC[C@@H]1OC(=O)[C@H](C)[C@H](OC2C[C@@](C)(OC)[C@](O)(CNC(C)C)[C@H](C)O2)[C@@H](C)[C@@H](O[C@@H]2O[C@H](C)C[C@H](N(C)C)[C@H]2O)[C@](C)(O)C[C@@H](C)NC[C@@H](C)[C@H](O)[C@]1(C)O (stereo partly drawn) [syzx-11] | – | ≤ 0.25 | 70 | ≤ 0.25 | 0.5 (≈ 0.62 µM) | ≤ 0.25 | 0.5 (≈ 0.62 µM) | – |
| CC[C@@H]1OC(=O)[C@H](C)[C@H](OC2C[C@@](C)(OC)[C@](O)(CNCCOC)[C@H](C)O2)[C@@H](C)[C@@H](O[C@@H]2O[C@H](C)C[C@H](N(C)C)[C@H]2O)[C@](C)(O)C[C@@H](C)NC[C@@H](C)[C@H](O)[C@]1(C)O (stereo partly drawn) [syzx-25, (2R,3S,4R,5S,8R,10R,11R,12S,13S,14R)-13-[(2,6-dideoxy-3-C-methyl-3-O-methyl-4-C-[(2-methoxyethyl)amino-methyl]-α-L-ribopyranosyl)oxy]-2-ethyl-3,4,10-trihydroxy-3,5,8,10,12,14-hexamethyl-11-[[3,4,6-trideoxy-3-(dimethylamino)-β-D-xylo-hexopyranosy]oxy]-1-oxa-7-azacyclopentadecan-15-one] | – | ≤ 0.25 | – | ≤ 0.25 | ≤ 0.25 | ≤ 0.25 | 16 (≈ 19.5 µM) | – |
| CC[C@@H]1OC(=O)[C@H](C)[C@H](OC2C[C@@](C)(OC)[C@](O)(CNCCOC)[C@H](C)O2)[C@@H](C)[C@@H](O[C@@H]2O[C@H](C)C[C@H](N(C)C)[C@H]2O)[C@](C)(O)C[C@@H](C)NC[C@@H](C)[C@H](O)[C@]1(C)O (stereo partly drawn) [syzx-58] | – | – | 80 | – | – | – | – | 16 |
| CCCNC[C@]1(O)[C@H](C)O[C@@H](O[C@H]2[C@H](C)[C@@H](O[C@@H]3O[C@H](C)C[C@H](N(C)C)[C@H]3O)[C@](C)(O)C[C@@H](C)N(CCC)C[C@H](C)[C@@H](O)[C@](C)(O)[C@@H](CC)OC(=O)[C@@H]2C)C[C@@]1(C)OC [syzx-101, (2R,3S,4R,5S,8R,10R,11R,12S,13S,14R)-13-[(2,6-dideoxy-3-C-methyl-3-O-methyl-4-C-[(n-propyl-amino)methyl]-α-L-ribopyranosyl)oxy]-2-ethyl-3,4,10-trihydroxy-3,5,8,10,12,14-hexamethyl-7-propyl-11-[[3,4,6-trideoxy-3-(dimethylamino)-β-D-xylo-hexopyranosy]oxy]-1-oxa-7-azacyclopentadecan-15-one] | 90% (9/10) | – | – | – | – | – | – | – |

Reference: patent US20160304547A1, “MACROLIDE COMPOUND” (PULIKE BIOLOGICAL ENGINEERING, INC, priority 2013, published 2016)
